# Laboratory results: US10988459B2 (priority 2015, dated 2021)
# Target: human RIP1 kinase domain (2-375) (Homo sapiens (Human), UniProt Q13546)
# Test: biochemical
# Type: biochemical
# Details: Table 1; apparent Ki (Morrison tight-binding fit); 50 nM RIP1 kinase domain, 50 uM ATP, 2 hours incubation; read-out: RIP1 Ki
# In short: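 50 nM purified kinase domain from baculovirus-infected insect cells, incubated 2 h with compound in 50 mM Hepes pH 7.5, 30 mM MgCl2, 1 mM DTT, 50 uM ATP, 0.002% Brij-35, 0.5% DMSO. ADP formation read by Transcreener FP at 633 nm excitation. Ki^app fitted with the Morrison tight-binding equation.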
# human RIP1 kinase domain (2-375), sequence (Q13546 2-375): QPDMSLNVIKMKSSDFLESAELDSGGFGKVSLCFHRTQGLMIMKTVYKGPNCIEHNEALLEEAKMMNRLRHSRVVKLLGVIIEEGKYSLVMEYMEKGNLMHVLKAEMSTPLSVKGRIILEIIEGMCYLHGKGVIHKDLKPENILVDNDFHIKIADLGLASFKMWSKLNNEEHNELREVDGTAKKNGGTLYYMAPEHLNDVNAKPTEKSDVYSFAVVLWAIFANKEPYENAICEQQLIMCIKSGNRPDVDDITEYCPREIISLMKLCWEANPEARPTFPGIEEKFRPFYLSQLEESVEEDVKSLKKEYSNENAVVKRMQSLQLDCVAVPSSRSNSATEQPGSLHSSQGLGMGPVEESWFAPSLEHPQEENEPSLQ
row,SMILES,Ki
1,"CN1C(=O)[C@@H](NC(=O)c2ncc3ccc(C(F)(F)F)cn23)COc2ccccc21 [Example 35, N-[(3S)-5-methyl-4-oxo-2,3-dihydro-1,5-benzoxazepin-3-yl]-6-(trifluoromethyl)imidazo[1,5-a]pyridine-3-carboxamide]",8.74 nM
2,"CC(C)(C)C1CCc2onc(C(=O)N[C@H]3COc4ccccc4NC3=O)c2C1 (stereo partly drawn) [Example 65, 5-(tert-butyl)-N-((S)-4-oxo-2,3,4,5-tetrahydrobenzo[b][1,4]oxazepin-3-yl)-4,5,6,7-tetrahydrobenzo[d]isoxazole-3-carboxamide]",404 nM

# Same assay, conditions: Table 5; apparent Ki (Morrison tight-binding fit); 50 nM RIP1 kinase domain, 50 uM ATP, 2 hours incubation; read-out: Ki
row,Ki,SMILES
1,355 nM,"CN1C(=O)C(NC(=O)c2ncn(Cc3ccccc3)n2)CCn2nc(CN3CC(F)C3)cc21 (single isomer, unassigned) [Example 721, 1-benzyl-N-[2-[(3-fluoroazetidin-1-yl)methyl]-4-methyl-5-oxo-7,8-dihydro-6H-pyrazolo[1,5-a][1,3]diazepin-6-yl]-1,2,4-triazole-3-carboxamide]"
2,13 nM,"CN1C(=O)[C@@H](NC(=O)c2nc3n(n2)C(c2ccccc2)CCC3)COc2ccccc21 (single isomer, unassigned) [Example 791]"
3,4020 nM,"CN1C(=O)[C@H](NC(=O)c2ncn(Cc3ccccc3)n2)CCn2nc(CCCN3CCOCC3)cc21 (single isomer, unassigned) [Example 738]"

# Same assay, conditions: human RIP1 kinase domain (2-375), 50 uM ATP, 2 hours incubation, Transcreener ADP assay; read-out: RIP1 Ki
row,Ki,SMILES
1,262 nM,"CN1C(=O)C(NC(=O)c2nnc(Cc3ccccc3)[nH]2)CCCn2nc(C3CC3)cc21 (stereo not drawn) [Example 105, 5-benzyl-N-(2-cyclopropyl-4-methyl-5-oxo-4,5,6,7,8,9-hexahydropyrazolo[1,5-a][1,3]diazocin-6-yl)-4H-1,2,4-triazole-3-carboxamide]"
2,126 nM,"CN1C(=O)C(NC(=O)c2ncn(Cc3ccccc3)n2)CCn2c1nc1ccccc12 (stereo not drawn) [Example 111, 1-benzyl-N-(1-methyl-2-oxo-2,3,4,5-tetrahydro-1H-benzo[4,5]imidazo[1,2-a][1,3]diazepin-3-yl)-1H-1,2,4-triazole-3-carboxamide]"
3,84.3 nM,"CN1C(=O)C(NC(=O)c2ncn(Cc3ccccc3)n2)CCn2cncc21 (stereo not drawn) [Example 204, 1-benzyl-N-(1-methyl-2-oxo-2,3,4,5-tetrahydro-1H-imidazo[1,5-a][1,3]diazepin-3-yl)-1H-1,2,4-triazole-3-carboxamide]"
4,3700 nM,"CCOc1ccc2[nH]nc(C(=O)N[C@H]3COc4ccccc4N(C)C3=O)c2n1 [Example 138, 5-ethoxy-N-[(3S)-5-methyl-4-oxo-2,3-dihydro-1,5-benzoxazepin-3-yl]-1H-pyrazolo[4,3-b]pyridine-3-carboxamide]"

# Same assay, conditions: human RIP1 kinase domain (2-375), Transcreener ADP assay, 50 uM ATP, 2 hours incubation; read-out: RIP1 Ki
row,Ki,SMILES
1,854 nM,"CC[C@@]1(C)OCc2cnc(C(=O)NC3CCn4cnc(C)c4N(C)C3=O)cc21 (stereo partly drawn) [Example 263, (1R)—N-(1,9-dimethyl-2-oxo-2,3,4,5-tetrahydro-1H-imidazo[1,5-a][1,3]diazepin-3-yl)-1-ethyl-1-methyl-1,3-dihydrofuro[3,4-c]pyridine-6-carboxamide]"

# Same assay, conditions: tight-binding apparent inhibition constant; human RIP1 kinase domain (2-375) 50 nM, 50 uM ATP, 2 hours; read-out: Ki
row,SMILES,Ki
1,"Cc1cc2n(n1)CC[C@H](NC(=O)c1ncc3c(n1)C(C)(CC(F)(F)F)OC3)C(=O)N2C (stereo partly drawn) [Example 487, 7-methyl-N-[(6S)-2,4-dimethyl-5-oxo-7,8-dihydro-6H-pyrazolo[1,5-a][1,3]diazepin-6-yl]-7-(2,2,2-trifluoroethyl)-5H-furo[3,4-d]pyrimidine-2-carboxamide]",370 nM
2,"CN1C(=O)[C@@H](NC(=O)c2nc3n(n2)CCOC32CCCC2)COc2ccccc21 [Example 562, N-[(3S)-5-methyl-4-oxo-2,3-dihydro-1,5-benzoxazepin-3-yl]spiro[5,6-dihydro-[1,2,4]triazolo[5,1-c][1,4]oxazine-8,1′-cyclopentane]-2-carboxamide]",20 nM
3,"CN1C(=O)[C@@H](NC(=O)c2ncc3c(n2)[C@](C)(CC(F)(F)F)OC3)COc2ccccc21 (racemic) [Example 688, rac-(7S)-7-methyl-N-[rac-(3 S)-5-methyl-4-oxo-2,3-dihydro-1,5-benzoxazepin-3-yl]-7-(2,2,2-trifluoroethyl)-5H-furo[3,4-d]pyrimidine-2-carboxamide]",43.7 nM

# Continued, values first:
row,Ki,SMILES
1,26.6 nM,"C[C@@H](c1ccc(F)cc1)n1cnc(C(=O)N[C@H]2CCn3nc(C4CC4)cc3N(C)C2=O)n1 (racemic) [Example 670, N-[rac-(6S)-2-cyclopropyl-4-methyl-5-oxo-7,8-dihydro-6H-pyrazolo[1,5-a][1,3]diazepin-6-yl]-1-[rac-(1S)-1-(4-fluorophenyl)ethyl]-1,2,4-triazole-3-carboxamide]"
2,110 nM,"Cc1cc2n(n1)CC[C@H](NC(=O)c1ncn(Cc3ncccc3F)n1)C(=O)N2C [Example 654, 1-[(3-fluoro-2-pyridyl)methyl]-N-(6S)-2,4-dimethyl-5-oxo-7,8-dihydro-6H-pyrazolo[1,5-a][1,3]diazepin-6-yl-1,2,4-triazole-3-carboxamide]"
3,463 nM,"CN1C(=O)[C@@H](NC(=O)c2nc3cccc(-c4cnn(C)c4)n3n2)CCn2nccc21 [Example 393, (S)-5-(1-methyl-1H-pyrazol-4-yl)-N-(4-methyl-5-oxo-5,6,7,8-tetrahydro-4H-pyrazol-[1,5-a][1,3]diazepin-6-yl)-[1,2,4]triazolo[1,5-a]pyridine-2-carboxamide]"
4,280 nM,Cc1cccnc1Cn1cnc(C(=O)N[C@H]2CCn3nc(C4CC4)cc3N(C)C2=O)n1 [Example 648]
5,834 nM,"CN1C(=O)[C@@H](NC(=O)c2nc3n(n2)[C@H](c2c(F)cccc2F)CCC3)CCn2nccc21 (racemic) [Example 400, (S)-5-(2,6-difluorophenyl)-N—((S)-4-methyl-5-oxo-5,6,7,8-tetrahydro-4H-pyrazolo[1,5-a][1,3]diazepin-6-yl)-5,6,7,8-tetrahydro-[1,2,4]triazolo[1,5-a]pyridine-2-carboxamide]"
